The target in data set [1] is T1, α-amylase (Sus scrofa, UniProt P00690).
T1 sequence (P00690 16-511): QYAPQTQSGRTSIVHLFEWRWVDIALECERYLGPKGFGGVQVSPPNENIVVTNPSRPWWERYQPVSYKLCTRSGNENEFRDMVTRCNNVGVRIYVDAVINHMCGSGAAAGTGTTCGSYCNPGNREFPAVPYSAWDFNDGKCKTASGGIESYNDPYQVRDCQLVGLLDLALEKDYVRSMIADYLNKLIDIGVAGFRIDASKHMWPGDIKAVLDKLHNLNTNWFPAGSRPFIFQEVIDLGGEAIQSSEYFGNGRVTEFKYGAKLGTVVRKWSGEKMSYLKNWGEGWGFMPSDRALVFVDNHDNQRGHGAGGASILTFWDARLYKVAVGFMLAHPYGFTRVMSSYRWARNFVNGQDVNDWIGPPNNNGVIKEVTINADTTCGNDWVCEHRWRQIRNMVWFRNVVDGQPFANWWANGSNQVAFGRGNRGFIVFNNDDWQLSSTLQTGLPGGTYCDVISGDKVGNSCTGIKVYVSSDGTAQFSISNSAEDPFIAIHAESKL
The data set is described as follows: Inhibition mechanism study of α-amylase inhibitor (enzyme concentration plots, Lineweaver-Burk plots). It is filed as biochemical. The note with it: for Inhibition type against α-amylase: Lineweaver-Burk plots; for KIS value (μM) against α-amylase: binding of inhibitor to enzyme-substrate complex; for Reversibility of α-amylase inhibition: plots of enzyme concentration vs remaining enzyme activity. How it is done:
The highest potent inhibitory compounds 5 g, 5 h, and 5 s were evaluated their inhibition mechanism. […] Lineweaver-Burk plots were used to analyse the inhibitory kinetics of compounds 5 g, 5 h, and 5 s. […] Besides, the KI and KIS values of compounds 5 g, 5 h, and 5 s were measured, showing KI values were higher than KIS values (Table 3).
The inhibition mechanism of compounds 5 g, 5 h, and 5S was also analysed. The enzyme inhibitory kinetics was detected using plots of enzyme concentration vs remaining enzyme activity at different inhibitor concentrations, and the substrate inhibitory kinetics was obtained from Lineweaver-Burk plot of remaining enzyme activity vs substrate concentration in the presence of different inhibitor concentrations.

In data set [2] the test system is HepG2 cells. The data set is described as follows: In vitro cytotoxicity assay (MTT) on HepG2 cells. It is filed as cell-based, Human. The note with it: 20 ∼ 80 μM, 24 h. How it is done:
(§1) Moreover, the preliminary in vitro safety of compounds 5e, 5 g, 5 h, and 5 s were tested on Mouse Preadipocytes cells (3T3-L1) and Human liver cancer cells (HepG2) using MTT method and the results were shown in Figure 11.
(§2) The 3T3-L1 cells or HepG2 cells were cultured in DMEM medium containing 10% foetal bovine serum, 100 U/mL penicillin and 0.1 mg/mL streptomycin in a humidified incubator with a 5% CO2 atmosphere at 37 °C. Cells in the logarithmic growth phase were used for this assay. After 5 × 10^3 3T3-L1 cells were seeded in 96 well plates for 24 h, compound with different concentration was added into each well for 24 h. MTT reagent (100 μL, 0.5 mg/mL) was added to each well for 4 h incubation. After the supernatant was discarded, 100 μL of DMSO was added. The absorbance was measured at 490 nm. Each sample was performed in 3 parallel experiments.

The test system of data set [3] is 3T3-L1 cells. Put plainly: In vitro cytotoxicity assay (MTT) on 3T3-L1 cells. It is filed as cell-based, Mouse. To be noted: 20 ∼ 80 μM, 24 h. How it is done:
as §1, §2

Data set [4] concerns the target α-glucosidase (Saccharomyces cerevisiae, UniProt P53341). Put plainly: Inhibition mechanism study of α-glucosidase inhibitor (enzyme concentration plots, Lineweaver-Burk plots). The class given is biochemical. The note with it: for Inhibition type against α-glucosidase: Lineweaver-Burk plots; for KIS value (μM) against α-glucosidase: binding of inhibitor to enzyme-substrate complex; for Reversibility of α-glucosidase inhibition: plots of enzyme concentration vs remaining enzyme activity. How it is done:
The relationship of enzyme concentration with enzyme activity in presence of compounds 5e, 5 g, and 5 h was firstly investigated.
The inhibitory kinetics of compounds 5e, 5 g, and 5 h on α-glucosidase were studied using Lineweaver-Burk plots.
Besides, we also determined the equilibrium constants of binding of inhibitors to free enzymes (KI) and enzyme-substrate complexes (KIS) through plots of slope (Km/Vm) and vertical intercept (1/Vm) vs inhibitor concentration.
The inhibition mechanism of compounds 5 g, 5e, and 5 h was analysed using similar above method. The enzyme inhibitory kinetics was detected using plots of enzyme concentration vs remaining enzyme activity at different inhibitor concentrations, and the substrate inhibitory kinetics was obtained from Lineweaver-Burk plot of remaining enzyme activity vs substrate concentration in the presence of different inhibitor concentrations.[32]

Structures are written as SMILES.

α-glucosidase, sequence (P53341 whole entry): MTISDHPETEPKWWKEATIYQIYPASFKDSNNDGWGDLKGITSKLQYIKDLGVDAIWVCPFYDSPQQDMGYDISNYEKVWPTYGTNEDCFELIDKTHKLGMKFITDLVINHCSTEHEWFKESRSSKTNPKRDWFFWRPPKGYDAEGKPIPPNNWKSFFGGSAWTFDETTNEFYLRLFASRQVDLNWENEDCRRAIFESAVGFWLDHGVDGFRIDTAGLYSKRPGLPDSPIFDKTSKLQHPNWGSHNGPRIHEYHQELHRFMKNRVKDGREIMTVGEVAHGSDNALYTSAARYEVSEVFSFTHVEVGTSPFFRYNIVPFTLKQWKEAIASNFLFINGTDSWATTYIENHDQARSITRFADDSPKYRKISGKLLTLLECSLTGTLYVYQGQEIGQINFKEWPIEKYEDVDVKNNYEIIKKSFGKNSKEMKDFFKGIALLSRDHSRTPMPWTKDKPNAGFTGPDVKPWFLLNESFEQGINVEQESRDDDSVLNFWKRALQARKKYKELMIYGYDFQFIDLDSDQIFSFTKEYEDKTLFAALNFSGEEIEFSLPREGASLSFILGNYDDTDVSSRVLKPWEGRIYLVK

A word on the melting point: it is the temperature, or range, at which the solid turns liquid. With `Cn1cc(C(C#N)c2cn(C)c3ccc(Br)cc23)c2cc(Br)ccc21` [Compound 5s, 2,2-Bis(5-bromo-1-methyl-1H-indol-3-yl)acetonitrile], the melting point is 177.7 to 181.7 °C. Also, in data set [1], the “Inhibition type against α-amylase” value is “Mixed type”, the “KIS value (μM) against α-amylase” value is 9.01 µM and the “Reversibility of α-amylase inhibition” value was “reversibly inhibited”. The “Inhibition type against α-amylase” value in data set [1] (listed as 5 s) is recorded as “mixed inhibitors”. The “Effect on the viability of HepG2 cells” value in data set [2] is “no effect on the viability”. Also, in data set [3], the “Effect on the viability of 3T3-L1 cells” value is recorded as “no effect on the viability”.
With `COC(=O)CNc1ccc(C(C#N)c2ccc(NCC(=O)OC)cc2)cc1` [Compound 7c, Dimethyl 2,2’-(((cyanomethylene)bis(4,1-phenylene))bis(azanediyl))diacetate], the melting point fell in the range of 135.7 to 140.8 °C.
Still for that read-out and setting: then `Cc1ccc2[nH]cc(C(C#N)c3c[nH]c4ccc(C)cc34)c2c1` [Compound 5k, 2,2-Bis(5-methyl-1H-indol-3-yl)acetonitrile], with 205.1 to 210.1 °C.
On to `Cc1[nH]c2ccc(F)cc2c1C(C#N)c1c(C)[nH]c2ccc(F)cc12` [Compound 5n, 2,2-Bis(5-fluoro-2-methyl-1H-indol-3-yl)acetonitrile], for which the melting point lay in the range of 183.4 to 188 °C.
On the same count and under the same terms, as for `N#CC(c1c[nH]c2cccc(Cl)c12)c1c[nH]c2cccc(Cl)c12` [Compound 5c, 2,2-Bis(4-chloro-1H-indol-3-yl)acetonitrile], the figure is 230 to 235.8 °C.
As to `N#CC(c1c[nH]c2cc(Cl)ccc12)c1c[nH]c2cc(Cl)ccc12` [Compound 5e, 2,2-Bis(6-chloro-1H-indol-3-yl)acetonitrile], the melting point is 175.6 to 178.2 °C. Further, in data set [4], the “Inhibition type against α-glucosidase” value is “mixed-type inhibitors”, the “KIS value (μM) against α-glucosidase” value is 2.11 µM and the “Reversibility of α-glucosidase inhibition” value is given as “reversible”. For the same molecule, in data set [2], the “Effect on the viability of HepG2 cells” value is on record as “no effect on the viability”. The “Effect on the viability of 3T3-L1 cells” value in data set [3] is “no effect on the viability”.
On to `N#CC(c1c[nH]c2ccc(Cl)cc12)c1c[nH]c2ccc(Cl)cc12` [Compound 5d, 2,2-Bis(5-chloro-1H-indol-3-yl)acetonitrile], for which the melting point was 168 to 173.4 °C.
Still for that read-out and setting: then `N#CC(c1c[nH]c2ccc(F)cc12)c1c[nH]c2ccc(F)cc12` [Compound 5b, 2,2-Bis(5-fluoro-1H-indol-3-yl)acetonitrile], with 182.7 to 187.5 °C; and `Cc1ccc2c(C(C#N)c3c[nH]c4cc(C)ccc34)c[nH]c2c1` [Compound 5l, 2,2-Bis(6-methyl-1H-indol-3-yl)acetonitrile], with 178.4 to 183.7 °C.
Molecule `COC(=O)c1ccc2[nH]cc(C(C#N)c3c[nH]c4ccc(C(=O)OC)cc34)c2c1` [Compound 5q, Dimethyl 3,3'-(cyanomethylene)bis(1H-indole-5-carboxylate)] showed a melting point of 259.6 to 266.9 °C.
Same read-out and setting: as for `Cn1cc(C(C#N)c2cn(C)c3ccccc23)c2ccccc21` [Compound 5r, 2,2-Bis(1-methyl-1H-indol-3-yl)acetonitrile], the figure is 70.3 to 74.6 °C.
On the same count and under the same terms, as for `N#CC(c1c[nH]c2ccccc12)c1c[nH]c2ccccc12` [Compound 5a, 2,2-Di(1H-indol-3-yl)acetonitrile], the figure is 173.9 to 178.3 °C; as for `Cc1[nH]c2ccccc2c1C(C#N)c1c(C)[nH]c2ccccc12` [Compound 5i, 2,2-Bis(2-methyl-1H-indol-3-yl)acetonitrile], 231.2 to 236.6 °C; as for `Cc1cccc2[nH]cc(C(C#N)c3c[nH]c4cccc(C)c34)c12` [Compound 5j, 2,2-Bis(4-methyl-1H-indol-3-yl)acetonitrile], 246.2 to 250.1 °C.
In the case of `N#CC(c1c(-c2ccccc2)[nH]c2ccccc12)c1c(-c2ccccc2)[nH]c2ccccc12` [Compound 5h, 2,2-Bis(2-phenyl-1H-indol-3-yl)acetonitrile], the melting point lay within 112 to 117.9 °C. In data set [4], the “Inhibition type against α-glucosidase” value was “Mixed type”, the “KIS value (μM) against α-glucosidase” value came to 1.69 µM and the “Reversibility of α-glucosidase inhibition” value is on record as “reversible”. In addition, the “Inhibition type against α-glucosidase” value in data set [4] (listed as 5 h) was “mixed-type inhibitors”. In data set [1], the “Inhibition type against α-amylase” value is reported as “Mixed type”, the “KIS value (μM) against α-amylase” value is 1.63 µM and the “Reversibility of α-amylase inhibition” value was “reversibly inhibited”. The “Inhibition type against α-amylase” value in data set [1] (listed as 5 h) is recorded as “mixed inhibitors”. Also, the “Effect on the viability of HepG2 cells” value in data set [2] is reported as “no effect on the viability”. Moreover, in data set [3], the “Effect on the viability of 3T3-L1 cells” value is reported as “no effect on the viability”.
With `N#CC(c1c[nH]c2c(Cl)cccc12)c1c[nH]c2c(Cl)cccc12` [Compound 5f, 2,2-Bis(7-chloro-1H-indol-3-yl)acetonitrile], the melting point was in the range of 162.2 to 168.8 °C.
For `N#CC(c1c[nH]c2ccc(Br)cc12)c1c[nH]c2ccc(Br)cc12` [Compound 5g, 2,2-Bis(5-bromo-1H-indol-3-yl)acetonitrile], in data set [4], the “Inhibition type against α-glucosidase” value is given as “Mixed type”, the “KIS value (μM) against α-glucosidase” value was found to be 1.59 µM and the “Reversibility of α-glucosidase inhibition” value was “reversible”. Moreover, the “Inhibition type against α-glucosidase” value in data set [4] (listed as 5 g) is recorded as “mixed-type inhibitors”. Besides, in data set [1], the “Inhibition type against α-amylase” value is recorded as “Mixed type”, the “KIS value (μM) against α-amylase” value was 25.02 µM and the “Reversibility of α-amylase inhibition” value is given as “reversibly inhibited”. Also, the “Inhibition type against α-amylase” value in data set [1] (listed as 5 g) is on record as “mixed inhibitors”. In addition, the “Effect on the viability of HepG2 cells” value in data set [2] is given as “no effect on the viability”. Also, the “Effect on the viability of 3T3-L1 cells” value in data set [3] is “no effect on the viability”.
The molecule `CCOC(=O)CNc1ccc(C(C#N)c2ccc(NCC(=O)OCC)cc2)cc1` [Compound 7b, Diethyl 2,2’-(((cyanomethylene)bis(4,1-phenylene))bis(azanediyl))diacetate] registered a melting point of 87.5 to 93.4 °C.
Same read-out and setting: then `COc1ccc2[nH]cc(C(C#N)c3c[nH]c4ccc(OC)cc34)c2c1` [Compound 5p, 2,2-Bis(5-methoxy-1H-indol-3-yl)acetonitrile], with 118.5 to 123 °C.
Molecule `Cc1ccc2[nH]c(C)c(C(C#N)c3c(C)[nH]c4ccc(C)cc34)c2c1` [Compound 5o, 2,2-Bis(2,5-dimethyl-1H-indol-3-yl)acetonitrile] displayed a melting point of 231.2 to 236.4 °C.
Still for that read-out and setting: as for `Cc1cccc2c(C(C#N)c3c[nH]c4c(C)cccc34)c[nH]c12` [Compound 5m, 2,2-Bis(7-methyl-1H-indol-3-yl)acetonitrile], the figure is 214.1 to 219.4 °C.
